Results reported in patent US20200253860A1, “TOPICAL COMPOSITION FOR ANTIAGING BENEFITS” (Conopco, Inc., d/b/a UNILEVER, priority 2017, published 2020).

Test system: Nrf2
Experiment: Nrf2 activation in AREc32 cells (luciferase assay)
Type: cell-based
Conditions: for Nrf2 activation fold increase wrt the control: note to Table 1, concentration not stated
Procedure: The AREc32 cells were obtained from CRX biosciences (Dundee, Scotland, UK). AREc32 cells were seeded into 96-well plates (flat-bottom white, opaque, sterile, with lids) at a density of 2×10^4, cells/well in 100 μL of complete media per well. Cell plates were then incubated at 37° C., 5% CO2 in a 95% humidified incubator for 24 hours before active addition. Tert butylhydroquinone (TBHQ) was used as an assay positive control. For performing the Nrf2 activity assay, the cells were lysed using Passive Lysis Buffer (PLB) (5×) procured from Promega. The PLB was diluted in a 1:5 ratio with distilled water to make 1× PLB solution. 20 μL of 1× PLB was added to each well of the 96 well plate, including 2 wells without cell (control wells). The plate was covered with aluminium foil to protect from light and incubated for 20 minutes at room temperature, on a rocker incubator. After 20 minutes, 18 μL of the cell lysate was transferred from the transparent 96 well cell culture plate to an opaque, white, flat bottom 96-well plate. The white flat bottom plates were proceeded for Luciferase assay. The Luciferase assay was performed by using Luciferase Assay System, from Promega. 80 μL of the Luciferase Reagent was added using the injector on the TECAN infinite M1000 instrument. Luminescence was measured for a period of 10 seconds using the Green 1 filter. The typical delay time of 2 seconds, and read time of 10 seconds was used. 4 readings were taken from each well within 1 min. The plate was advanced to the next well for a repeat of the inject-then-read process. The luciferase value was represented as fold change over control in Table 1.

C=CC(C)(O)CCC=C(C)C (stereo not drawn) [Linalool]
Nrf2 activation fold increase wrt the control: barely any change

CC(C)(C)c1cc(O)ccc1O [TBHQ, Tert butylhydroquinone]
Nrf2 activation Fold change wrt control (10 μM): 4.5 fold

CCC/C=C/C=O [E-2-Hexenal]
Nrf2 activation fold increase wrt the control: 1.1 fold
